Results from patent US20240016831A1 (priority 2020, published 2024).

Format: physicochemical
Details: pH 3

SMILES | amounts of nitric oxide generated (cumulative NO evolved)
OC[C@@H](O)[C@@H](O)[C@H](O)[C@H](O)CO [mannitol, D-mannitol] | markedly greater amounts of nitric oxide
OC[C@@H](O)[C@@H](O)[C@H](O)[C@@H](O)CO [sorbitol] | markedly greater amounts of nitric oxide
